Test results reported in PubChem BioAssay (NCI).
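Protocol summary: plate cells (96-well), add compound at 5 concentrations, incubate 48 h, interpolate endpoints linearly. TGI marks complete inhibition of growth.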 Activity calls are given as the source filed them. Rule as the data show it: active = GI50 below about 0.43 µM; inactive = the rest.

Tests used:
Assay in all cases: NCI anticancer screen, dose series, 48 h
UO-31 renal = system: UO-31 renal
ACHN renal = system: ACHN renal
UACC-257 melanoma = system: UACC-257 melanoma
SNB-75 CNS = system: SNB-75 CNS
MOLT-4 leukemia = system: MOLT-4 leukemia
OVCAR-8 ovarian = system: OVCAR-8 ovarian
SF-268 CNS = system: SF-268 CNS
SK-OV-3 ovarian = system: SK-OV-3 ovarian
HT29 colon = system: HT29 colon
A549 NSCLC = system: A549 NSCLC
DU-145 prostate = system: DU-145 prostate
K-562 leukemia = system: K-562 leukemia
NCI/ADR-RES ovarian = system: NCI/ADR-RES ovarian
RXF 393 renal = system: RXF 393 renal
SNB-19 CNS = system: SNB-19 CNS
COLO 205 colon = system: COLO 205 colon
MDA-MB-435 = system: MDA-MB-435
NCI-H226 lung = system: NCI-H226 lung
UACC-62 melanoma = system: UACC-62 melanoma
OVCAR-3 ovarian = system: OVCAR-3 ovarian
786-0 renal = system: 786-0 renal
SK-MEL-28 melanoma = system: SK-MEL-28 melanoma
CCRF-CEM leukemia = system: CCRF-CEM leukemia
SR leukemia = system: SR leukemia
HCT-15 colon = system: HCT-15 colon
NCI-H23 lung = system: NCI-H23 lung
HCC-2998 colon = system: HCC-2998 colon
EKVX NSCLC = system: EKVX NSCLC
SF-539 CNS = system: SF-539 CNS
IGROV1 ovarian = system: IGROV1 ovarian
HL-60(TB) leukemia = system: HL-60(TB) leukemia
TK-10 renal = system: TK-10 renal
BT-549 breast = system: BT-549 breast
U251 CNS = system: U251 CNS
SW-620 colon = system: SW-620 colon
MDA-N = system: MDA-N
RPMI-8226 leukemia = system: RPMI-8226 leukemia
CAKI-1 renal = system: CAKI-1 renal
LOX IMVI melanoma = system: LOX IMVI melanoma
SK-MEL-5 melanoma = system: SK-MEL-5 melanoma
SF-295 CNS = system: SF-295 CNS
T-47D breast = system: T-47D breast
M14 melanoma = system: M14 melanoma
MDA-MB-231 breast = system: MDA-MB-231 breast
OVCAR-5 ovarian = system: OVCAR-5 ovarian
PC-3 prostate = system: PC-3 prostate
NCI-H522 lung = system: NCI-H522 lung
MALME-3M melanoma = system: MALME-3M melanoma
HCT-116 colon = system: HCT-116 colon
KM12 colon = system: KM12 colon
MCF7 breast = system: MCF7 breast
SN12C renal = system: SN12C renal
HOP-62 NSCLC = system: HOP-62 NSCLC
SK-MEL-2 melanoma = system: SK-MEL-2 melanoma
OVCAR-4 ovarian = system: OVCAR-4 ovarian
A498 renal = system: A498 renal
HS 578T breast = system: HS 578T breast
NCI-H460 lung = system: NCI-H460 lung

With `C=CCN(Cc1ccncc1)C(=O)C(O)(c1ccccc1)c1ccccc1` the TGI (UO-31 renal) was 56.5 µM, the TGI (ACHN renal) was > 100 µM and the TGI (UACC-257 melanoma) was > 100 µM. For the same molecule, the TGI (SNB-75 CNS) was > 100 µM, the TGI (MOLT-4 leukemia) was > 100 µM and the TGI (OVCAR-8 ovarian) was > 100 µM. For the same molecule, the TGI (SF-268 CNS) was > 100 µM, the TGI (SK-OV-3 ovarian) was > 100 µM and the TGI (HT29 colon) was > 100 µM. The TGI (A549 NSCLC) was > 100 µM, the TGI (DU-145 prostate) was > 100 µM and the TGI (K-562 leukemia) was > 100 µM. The TGI (NCI/ADR-RES ovarian) was 37.4 µM, the TGI (RXF 393 renal) was > 100 µM and the TGI (SNB-19 CNS) was > 100 µM. The TGI (COLO 205 colon) was > 100 µM, the TGI (MDA-MB-435) was > 100 µM and the TGI (NCI-H226 lung) was > 100 µM. The TGI (UACC-62 melanoma) was > 100 µM, the TGI (OVCAR-3 ovarian) was > 100 µM and the TGI (786-0 renal) was > 100 µM. The TGI (SK-MEL-28 melanoma) was > 100 µM, the TGI (CCRF-CEM leukemia) was > 100 µM and the TGI (SR leukemia) was > 100 µM. The TGI (HCT-15 colon) was > 100 µM, the TGI (NCI-H23 lung) was > 100 µM and the TGI (HCC-2998 colon) was > 100 µM. The TGI (EKVX NSCLC) was > 100 µM, the TGI (SF-539 CNS) was > 100 µM and the TGI (IGROV1 ovarian) was > 100 µM. The TGI (HL-60(TB) leukemia) was > 100 µM, the TGI (TK-10 renal) was > 100 µM and the TGI (BT-549 breast) was > 100 µM. For the same molecule, the TGI (U251 CNS) was > 100 µM, the TGI (SW-620 colon) was > 100 µM and the TGI (MDA-N) was > 100 µM. For the same molecule, the TGI (RPMI-8226 leukemia) was 78.6 µM, the TGI (CAKI-1 renal) was > 100 µM and the TGI (LOX IMVI melanoma) was > 100 µM. For the same molecule, the TGI (SK-MEL-5 melanoma) was > 100 µM, the TGI (SF-295 CNS) was > 100 µM and the TGI (T-47D breast) was > 100 µM. The TGI (M14 melanoma) was > 100 µM, the TGI (MDA-MB-231 breast) was > 100 µM and the TGI (OVCAR-5 ovarian) was > 100 µM. The TGI (PC-3 prostate) was > 100 µM, the TGI (NCI-H522 lung) was > 100 µM and the TGI (MALME-3M melanoma) was > 100 µM. The TGI (HCT-116 colon) was > 100 µM, the TGI (KM12 colon) was > 100 µM and the TGI (MCF7 breast) was > 100 µM. The TGI (SN12C renal) was > 100 µM and the TGI (HOP-62 NSCLC) was > 100 µM.

In the case of `C[C@H](N)C(O)C/C=C\CC(O)/C=C/C=C\C/C=C\C/C=C\C/C=C\CCCCCCC(O)[C@H](C)N` (some centres not stated), the outcome (UO-31 renal) is reported as “inactive”, the outcome (ACHN renal) is reported as “inactive” and the outcome (UACC-257 melanoma) is reported as “inactive”. The outcome (SNB-75 CNS) was “inactive”, the outcome (MOLT-4 leukemia) was “inactive” and the outcome (OVCAR-8 ovarian) was “inactive”. The outcome (SF-268 CNS) was “inactive”, the outcome (SK-OV-3 ovarian) was “inactive” and the outcome (HT29 colon) was “inactive”. For the same molecule, the outcome (DU-145 prostate) was “inactive”, the outcome (K-562 leukemia) was “inactive” and the outcome (RXF 393 renal) was “inactive”. The outcome (SNB-19 CNS) was “inactive”, the outcome (COLO 205 colon) was “inactive” and the outcome (MDA-MB-435) was “inactive”. The outcome (NCI-H226 lung) was “inactive”, the outcome (UACC-62 melanoma) was “inactive” and the outcome (OVCAR-3 ovarian) was “inactive”. The outcome (786-0 renal) was “inactive”, the outcome (SK-MEL-2 melanoma) was “inactive” and the outcome (SK-MEL-28 melanoma) was “inactive”. The outcome (CCRF-CEM leukemia) was “inactive”, the outcome (SR leukemia) was “inactive” and the outcome (HCT-15 colon) was “inactive”. For the same molecule, the outcome (OVCAR-4 ovarian) was “inactive”, the outcome (NCI-H23 lung) was “inactive” and the outcome (HCC-2998 colon) was “inactive”. For the same molecule, the outcome (EKVX NSCLC) was “inactive”, the outcome (SF-539 CNS) was “inactive” and the outcome (A498 renal) was “inactive”. For the same molecule, the outcome (HS 578T breast) was “inactive”, the outcome (HL-60(TB) leukemia) was “inactive” and the outcome (TK-10 renal) was “inactive”. For the same molecule, the outcome (BT-549 breast) was “inactive”, the outcome (U251 CNS) was “inactive” and the outcome (SW-620 colon) was “inactive”. For the same molecule, the outcome (MDA-N) was “inactive”, the outcome (RPMI-8226 leukemia) was “inactive” and the outcome (CAKI-1 renal) was “inactive”. The outcome (LOX IMVI melanoma) was “inactive”, the outcome (SF-295 CNS) was “inactive” and the outcome (NCI-H460 lung) was “inactive”. The outcome (T-47D breast) was “inactive”, the outcome (M14 melanoma) was “inactive” and the outcome (MDA-MB-231 breast) was “inactive”. The outcome (OVCAR-5 ovarian) was “inactive”, the outcome (PC-3 prostate) was “inactive” and the outcome (NCI-H522 lung) was “inactive”. For the same molecule, the outcome (MALME-3M melanoma) was “inactive”, the outcome (HCT-116 colon) was “inactive” and the outcome (KM12 colon) was “inactive”. For the same molecule, the outcome (MCF7 breast) was “inactive”, the outcome (SN12C renal) was “inactive” and the outcome (HOP-62 NSCLC) was “inactive”.
